Where “and” joins values, the source holds several entries; their conditions need not be identical. Equal values may be shown once. No end group written: not given here.
System: hematopoietic stem cells (HSC) and their hematopoietic progenitors (HPC)
Assay: CFU-GM / CFU-GEMM colony assay of peripheral blood mononuclear cells after single subcutaneous injection
Format: in vivo, C57Bl6 mice
Protocol: C57Bl6 male mice, from 8 weeks to 4 month of age, from Harlan were used. Mice received subcutaneous injections of saline, Compound X (50 μg/kg) or Compound X (250 μg/kg). After 1 and 4 hours, mice were anesthetized and blood was collected through the orbital sinus with heparinized capillary tubes. 20 μl of blood was removed from each tube for WBC counts;
Remaining blood from each group was pooled and mononuclear cells were isolated by density gradient separation. To enumerate HSC and HPC in peripheral blood cells were washed, counted plated in semi-solid Methylcellulose MC3434 (Stem cell technology) at 100,000 per dish (5 dishes/group) and placed in CO2 incubator at 37° C. Colony-forming unit-granulocyte erythroid macrophage megakaryocyte (CFU-GEMM) and Colony-forming unit-granulocyte macrophage (CFU-GM) were detected under inverted microscope 7 and 10 days after.
In this experiment, C57Bl6 mice received subcutaneous injections of PBS, Compound X (250 μg/kg) or AMD3100 (5 mg/kg). After 1 hr blood was collected through the orbital sinus with heparinized capillary tubes. Blood from each group was pooled, counted and mononuclear cells were isolated by density gradient separation. Cells were washed, counted and plated at 100,000 per dish (5 dishes/group) for CFU-GEMM and CFU-GM colonies. CFU-GEMM colonies were scored on day 14, while CFU-GM colonies on day 7 after plating in MC3434 (Stem cell Technology).

[1] = s.c. 250 μg/kg, 1 hour, individual dishes

Sequence: FPHFDLSHGSAQV [Compound X, tridecapeptide that acts on stem cells]
- increase in number of HSC HPC in blood (1 hr after s.c. injection): up to 5 times
- doses with mobilizing activity (doses tested from 5 μg/kg up to 5 mg): 0.125 to 0.5 mg/kg
- CFU-GEMM, MEAN (s.c. 250 μg/kg, 1 hour): 3.8 per 100,000 cells
- CFU-GM (day 7), MEAN (s.c. 250 μg/kg, 1 hour): 4 per 100,000 cells
- CFU-GEMM [1]: 6 per 100,000 cells and 3 per 100,000 cells (3×) and 4 per 100,000 cells
- CFU-GM (day 7) [1]: 3 per 100,000 cells (2×) and 6 per 100,000 cells and 4 per 100,000 cells (2×)
- number of white blood cells and CFU-GM in peripheral blood (s.c. 250 μg/kg, 1 hr): did not change
- increase of CFU-GEMM number in peripheral blood (s.c. 250 μg/kg, 1 hr, vs PBS): 3.8 times
- CFU-GM + CFU-GEMM, MEAN (single s.c. 50 μg/kg, 1 hour): 5 per 100000 cells
- CFU-GM + CFU-GEMM (single s.c. 50 μg/kg, 1 hour, individual dishes): 5 per 100000 cells and 6 per 100000 cells and 4 per 100000 cells and 3 per 100000 cells and 7 per 100000 cells
- CFU-GM + CFU-GEMM, MEAN (single s.c. 50 μg/kg, 4 hour): 0.6 per 100000 cells
- CFU-GM + CFU-GEMM (single s.c. 50 μg/kg, 4 hour, individual dishes): 1 per 100000 cells (3×) and 0 per 100000 cells (2×)
- CFU-GM + CFU-GEMM, MEAN (single s.c. 250 μg/kg, 1 hour): 25 per 100000 cells
- CFU-GM + CFU-GEMM (single s.c. 250 μg/kg, 1 hour, individual dishes): 24 per 100000 cells (2×) and 20 per 100000 cells and 28 per 100000 cells and 29 per 100000 cells
- CFU-GM + CFU-GEMM, MEAN (single s.c. 250 μg/kg, 4 hour): 1.4 per 100000 cells
- CFU-GM + CFU-GEMM (single s.c. 250 μg/kg, 4 hour, individual dishes): 1 per 100000 cells (4×) and 3 per 100000 cells
- stem cell number (HSC) in circulation (within 1 hr after injection, from approximately 100 HSC under homeostatic conditions): 300-400 HSC
